Source: US20230348444A1, “NOVEL COMPOUNDS FOR USE IN THE TREATMENT OF DISEASES ASSOCIATED WITH ANGIOTENSIN II” (Vicore Pharma AB, priority 2020, published 2023)

What was measured:
CYP1A = biological target: T1, CYP1A (Homo sapiens, UniProt P05177); assay: CYP inhibition in human liver microsomes (Eurofins protocol ITEMG232); type: in vitro ADME; settings: substrate phenacetin; for CYP1A Inh %: 10 μM; for inhibition at 10 µM: probe phenacetin, read-out: CYP1A Inh %
T1 construct: using isoform-specific substrates incubated with human liver microsomes; tissue Eurofins ITEMG232; host or cells: human liver microsomes
T1 sequence (P05177 2-516 limits assumed): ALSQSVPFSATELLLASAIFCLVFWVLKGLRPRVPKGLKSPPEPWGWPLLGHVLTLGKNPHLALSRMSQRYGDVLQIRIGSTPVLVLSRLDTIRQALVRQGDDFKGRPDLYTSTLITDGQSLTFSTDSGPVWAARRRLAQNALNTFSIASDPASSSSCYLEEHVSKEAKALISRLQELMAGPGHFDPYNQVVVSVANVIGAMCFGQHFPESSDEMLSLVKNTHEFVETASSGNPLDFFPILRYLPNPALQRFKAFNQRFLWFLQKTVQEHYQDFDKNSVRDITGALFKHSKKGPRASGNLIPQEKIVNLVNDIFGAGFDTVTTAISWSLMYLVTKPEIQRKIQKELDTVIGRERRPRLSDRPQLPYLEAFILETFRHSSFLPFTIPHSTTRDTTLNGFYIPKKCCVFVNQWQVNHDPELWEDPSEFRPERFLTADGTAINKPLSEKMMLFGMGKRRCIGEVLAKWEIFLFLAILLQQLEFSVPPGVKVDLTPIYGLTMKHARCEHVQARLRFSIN
Procedure: (§1) The following substrates were used; CYP1A phenacetin, CYP2B6 bupropion, CYP2C8 paclitaxel and amodiaquine, CYP2C9 diclofenac, CYP2C19 omeprazole, CYP2D6 dextromethorphan, CYP3A midazolam and testosterone.
(§2) At the end of the incubation, the formation of metabolite was monitored by HPLC-MS/MS as the peak area response.

CYP2C19 = biological target: T2, CYP2C19 (Homo sapiens, UniProt P33261); assay: as above; type: in vitro ADME; settings: substrate omeprazole; for CYP2C19 Inh %: 10 μM; for inhibition at 10 µM: probe omeprazole, read-out: CYP2C19 Inh %
T2 construct: using isoform-specific substrates incubated with human liver microsomes; tissue Eurofins ITEMG232; host or cells: human liver microsomes
Procedure: as §1, §2

CYP2C8 = biological target: T3, CYP2C8 (Homo sapiens, UniProt P10632); assay: as above; type: in vitro ADME; settings: substrates paclitaxel and amodiaquine; for CYP2C8 Inh %: 10 μM; for inhibition at 10 µM: probe paclitaxel and amodiaquine, read-out: CYP2C8 Inh %
T3 construct: using isoform-specific substrates incubated with human liver microsomes; tissue Eurofins ITEMG232; host or cells: human liver microsomes
T3 sequence (P10632 1-490): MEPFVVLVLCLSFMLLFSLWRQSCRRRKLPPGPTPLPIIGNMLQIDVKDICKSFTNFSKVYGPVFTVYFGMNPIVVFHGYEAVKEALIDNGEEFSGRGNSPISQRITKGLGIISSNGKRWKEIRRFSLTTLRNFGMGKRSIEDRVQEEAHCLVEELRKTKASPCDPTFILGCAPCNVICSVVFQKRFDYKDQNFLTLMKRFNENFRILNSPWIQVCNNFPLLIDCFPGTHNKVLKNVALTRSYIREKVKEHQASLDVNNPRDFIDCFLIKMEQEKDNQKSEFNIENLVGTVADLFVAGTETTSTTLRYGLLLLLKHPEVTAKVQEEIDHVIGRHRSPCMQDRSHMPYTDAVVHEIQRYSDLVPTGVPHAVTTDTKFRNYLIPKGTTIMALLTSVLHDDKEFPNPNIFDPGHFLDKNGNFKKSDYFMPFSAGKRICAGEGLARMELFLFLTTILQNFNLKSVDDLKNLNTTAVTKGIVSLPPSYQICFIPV
Procedure: as §1, §2

CYP2D6 = biological target: T4, CYP2D6 (Homo sapiens, UniProt P10635); assay: as above; type: in vitro ADME; settings: substrate dextromethorphan; for CYP2D6 Inh %: 10 μM; for inhibition at 10 µM: probe dextromethorphan, read-out: CYP2D6 Inh %
T4 construct: tissue Eurofins ITEMG232; host or cells: human liver microsomes
Procedure: as §1, §2

CYP3A4&5 = assay: CYP inhibition in human liver microsomes (Eurofins protocol ITEMG232), testosterone substrate; type: in vitro ADME; settings: for CYP3A4&5 testosterone Inh %: 10 μM; for inhibition at 10 µM: probe testosterone, read-out: CYP3A4&5 testosterone Inh %
Procedure: as §1, §2

[1] = biological target: T5, human recombinant AT2 receptor (Homo sapiens, UniProt P50052); assay: Binding to AT2 receptor, radiometric scintillation assay (Eurofins protocol ITEM26 and ITEM24); settings: read-out: AT2 IC50, ligand 125I CGP 42112A, 1, 10, 100 and 1000 nM, 2-4 h at 37° C.
T5 sequence (P50052 1-363): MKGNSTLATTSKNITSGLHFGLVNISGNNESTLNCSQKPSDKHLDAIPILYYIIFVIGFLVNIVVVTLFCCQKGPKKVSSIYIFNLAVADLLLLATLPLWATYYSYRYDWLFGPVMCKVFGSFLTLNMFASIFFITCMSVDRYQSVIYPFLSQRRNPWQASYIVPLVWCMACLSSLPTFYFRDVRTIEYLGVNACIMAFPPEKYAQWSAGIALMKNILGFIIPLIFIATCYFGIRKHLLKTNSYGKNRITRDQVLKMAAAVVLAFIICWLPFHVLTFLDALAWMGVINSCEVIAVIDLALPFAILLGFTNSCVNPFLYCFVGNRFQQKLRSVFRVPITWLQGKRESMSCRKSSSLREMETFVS
Procedure: (§3) Compounds were evaluated for binding to the human recombinant AT2 and AT1 receptor according to Eurofins protocol ITEM26 and ITEM24 using a radiometric scintillation assay.

[2] = biological target: T6, human recombinant AT1 receptor (Homo sapiens, UniProt P30556); assay: Binding to AT1 receptor, radiometric scintillation assay (Eurofins protocol ITEM26 and ITEM24); settings: read-out: AT1 IC50, ligand 125I (sar1,Ile8)-AT-II, 1 and 10 uM, 2-4 h at 37° C.
T6 sequence (P30556 1-359): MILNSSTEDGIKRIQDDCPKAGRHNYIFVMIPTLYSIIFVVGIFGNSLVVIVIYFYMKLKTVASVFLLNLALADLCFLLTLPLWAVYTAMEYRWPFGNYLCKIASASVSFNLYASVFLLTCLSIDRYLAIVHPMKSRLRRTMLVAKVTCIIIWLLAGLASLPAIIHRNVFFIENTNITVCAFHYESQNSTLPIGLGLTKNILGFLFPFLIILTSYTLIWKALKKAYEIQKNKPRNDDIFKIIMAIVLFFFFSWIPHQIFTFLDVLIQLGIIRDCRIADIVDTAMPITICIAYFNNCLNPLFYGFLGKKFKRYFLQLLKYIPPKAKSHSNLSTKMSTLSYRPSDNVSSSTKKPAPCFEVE
Procedure: as §3

CYP2C9 = CYP2C9 (Homo sapiens, UniProt P11712); assay: CYP inhibition in human liver microsomes (Eurofins protocol ITEMG232); type: in vitro ADME; parameters: using isoform-specific substrates incubated with human liver microsomes; tissue Eurofins ITEMG232; host or cells: human liver microsomes; settings: substrate diclofenac; for CYP2C9 Inh %: 10 μM; for inhibition at 10 µM: probe diclofenac, read-out: CYP2C9 Inh %
Procedure: as §1, §2

T2 sequence (P33261 whole entry, canonical isoform): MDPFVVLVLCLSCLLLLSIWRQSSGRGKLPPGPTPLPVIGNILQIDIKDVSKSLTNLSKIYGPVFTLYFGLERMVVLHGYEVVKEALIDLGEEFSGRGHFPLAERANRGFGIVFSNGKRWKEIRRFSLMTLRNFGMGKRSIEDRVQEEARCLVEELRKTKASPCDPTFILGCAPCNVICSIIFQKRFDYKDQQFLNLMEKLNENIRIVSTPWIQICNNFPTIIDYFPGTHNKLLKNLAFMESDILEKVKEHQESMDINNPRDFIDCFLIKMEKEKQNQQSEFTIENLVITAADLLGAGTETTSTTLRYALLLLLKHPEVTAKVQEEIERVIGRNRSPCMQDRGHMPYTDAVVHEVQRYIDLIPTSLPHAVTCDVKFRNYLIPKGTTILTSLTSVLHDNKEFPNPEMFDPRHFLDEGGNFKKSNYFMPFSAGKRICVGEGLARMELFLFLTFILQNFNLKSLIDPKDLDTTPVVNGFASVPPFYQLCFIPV
T4 sequence (P10635 whole entry): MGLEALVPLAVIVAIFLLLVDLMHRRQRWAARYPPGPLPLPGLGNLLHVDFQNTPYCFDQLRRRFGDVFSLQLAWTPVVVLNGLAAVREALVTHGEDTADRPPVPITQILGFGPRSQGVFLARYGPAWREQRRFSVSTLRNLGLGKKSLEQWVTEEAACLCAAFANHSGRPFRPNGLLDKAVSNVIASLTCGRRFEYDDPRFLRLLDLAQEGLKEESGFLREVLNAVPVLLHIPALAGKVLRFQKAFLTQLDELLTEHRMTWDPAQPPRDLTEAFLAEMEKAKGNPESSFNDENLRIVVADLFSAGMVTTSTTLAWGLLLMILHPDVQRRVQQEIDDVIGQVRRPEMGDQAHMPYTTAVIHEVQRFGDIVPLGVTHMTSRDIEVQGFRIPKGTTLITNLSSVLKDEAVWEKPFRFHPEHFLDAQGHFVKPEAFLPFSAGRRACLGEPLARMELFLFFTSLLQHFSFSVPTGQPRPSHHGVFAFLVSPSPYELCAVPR
Chain of CYP2C9 (P11712 whole entry, canonical isoform): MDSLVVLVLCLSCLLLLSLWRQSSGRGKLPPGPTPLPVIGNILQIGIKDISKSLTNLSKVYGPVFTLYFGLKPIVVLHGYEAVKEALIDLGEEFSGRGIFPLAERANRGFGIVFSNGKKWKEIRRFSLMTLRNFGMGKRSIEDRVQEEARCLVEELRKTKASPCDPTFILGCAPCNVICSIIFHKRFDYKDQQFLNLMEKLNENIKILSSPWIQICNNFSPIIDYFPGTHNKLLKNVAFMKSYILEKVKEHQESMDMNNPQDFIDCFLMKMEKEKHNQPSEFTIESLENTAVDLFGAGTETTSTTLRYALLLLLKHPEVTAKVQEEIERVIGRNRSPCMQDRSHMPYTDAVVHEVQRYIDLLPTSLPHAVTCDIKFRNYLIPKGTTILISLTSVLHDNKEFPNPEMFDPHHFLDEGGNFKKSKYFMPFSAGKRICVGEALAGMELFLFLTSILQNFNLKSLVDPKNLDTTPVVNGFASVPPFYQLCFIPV

Row | Compound | CYP1A Inh % (CYP1A) [%] | CYP2C19 Inh % (CYP2C19) [%] | CYP2C8 Inh % (CYP2C8) [%] | CYP2D6 Inh % (CYP2D6) [%] | CYP3A4&5 testosterone Inh % (CYP3A4&5) [%] | IC50 [1] [nM] | IC50 [2] [nM] | CYP2C9 Inh % (CYP2C9) [%] | inhibition at 10 µM (CYP1A) [%] | inhibition at 10 µM (CYP2C19) [%] | inhibition at 10 µM (CYP2C8) [%] | inhibition at 10 µM (CYP2D6) [%] | inhibition at 10 µM (CYP3A4&5) [%] | inhibition at 10 µM (CYP2C9) [%]
1 | CCOC(=O)NS(=O)(=O)c1sc(CC(C)C)cc1-c1ccc(Cn2ccnc2C(C)C)c(F)c1.O=C(O)C(F)(F)F [Example 8, Ethyl (3-(3-fluoro-4-((2-isopropyl-1H-imidazol-1-yl)methyl)phenyl)-5-isobutylthio-phen-2-yl)sulfonylcarbamate trifluoroacetic acid] | −13 | 39 | 26 | 44 | −20 | 3.5 | > 1000 | 58 |  |  |  |  |  | 
2 | COCCOC(=O)NS(=O)(=O)c1sc(CC(C)C)cc1-c1ccc(Cn2ccnc2C)c(F)c1.O=C(O)C(F)(F)F [Example 3] | −13 | 39 | 26 | 44 | −20 | 3.5 | > 1000 | 58 |  |  |  |  |  | 
3 | Cc1nccn1Cc1c(F)cc(-c2cc(CC(C)C)sc2S(=O)(=O)NC(=O)OCCO)cc1F [Example 18, 2-Hydroxyethyl (3-(3,5-difluoro-4-((2-methyl-1H-imidazol-1-yl)methyl)phenv1)-5-isobutylthiophen-2-yl)sulfonylcarbamate] | 15.2 | 5.9 | 56.1 | 48.8 | 1.7 | 0.87 | 16000 | 77.0 |  |  |  |  |  | 
4 | CCOC(=O)NS(=O)(=O)c1sc(CC(C)C)cc1-c1ccc(Cn2ccnc2CC)c(F)c1.O=C(O)C(F)(F)F [Example 7, Ethyl (3-(4-((2-ethyl-1H-imidazol-1-yl)methyl)-3-fluorophenyl)-5-isobutylthiophen-2-30 yl)sulfonylcarbamate trifluoroacetic acid] | 21 | 41 | 66 | 39 | 18 | 1.8 | > 1000 | 64 |  |  |  |  |  | 
5 | CC(C)Cc1cc(-c2ccc(Cn3ccnc3C(C)(C)C)c(F)c2)c(S(=O)(=O)NC(=O)c2ccccn2)s1 [Example 27, N-((3-(4-((2-(Tert-Butyl)-1H-imidazol-1-yl)methyl)-3-fluorophenyl)-5-isobutylthio-phen-2-yl)sulfonyl)picolinamide] |  |  |  |  |  |  |  |  | 29 | 43.2 | 65.7 | 20.1 | 27.4 | 58.4
6 | CCc1nccn1Cc1ccc(-c2cc(CC(C)C)sc2S(=O)(=O)NC(=O)OCc2ccc(F)cc2)cc1F.O=C(O)C(F)(F)F [Example 6, 4-Fluorobenzyl (3-(4((2-ethyl-1H-imidazol-1-yl)methyl)-3-fluorophenyl)-5-isobutylthio-phen-2-yl)sulfonylcarbamate trifluoroacetic acid] | 35 | 52 | 55 | 50 | 13 | 1.8 | > 1000 | 72 |  |  |  |  |  | 
7 | Cc1nccn1Cc1ccc(-c2cc(CC(C)C)sc2S(=O)(=O)NC(=O)OCCOC(=O)C(C)(C)C)cc1F [Example 19, 2-((((3-(3-Fluoro-4-((2-methyl-1H-imidazol-1-yl)methyl)phenyl)-5-isobutylthiophen-2-yl)sulfonyl)carbamoyl)oxy)ethyl pivalate] |  |  |  |  |  |  |  |  | 84.3 | 54.1 | 83.2 | 31.3 | 20.7 | 62.3
8 | CCOC(=O)NS(=O)(=O)c1sc(CC(C)C)cc1-c1ccc(Cn2ccnc2C)c(F)c1.O=C(O)C(F)(F)F [Example 1, Ethyl (3-(3-fluoro-4-((2-methyl-1H-imidazol-1-yl)methyl)phenyl)-5-isobutylthiophen-2-yl)sulfonvicarbamate trifluoroacetic acid] | 37 | 37 | 37 | 45 | −2 | 2.4 | > 1000 | 64 |  |  |  |  |  | 
